Assay results from patent publication US20150191469A1, “COMPOUNDS AND METHODS FOR TREATING HIV” (priority 2012, published 2015).
pIC50: −log10 of the molar value.

Test system: HIV
Experiment: MT4 assay: antiviral HIV activity (cell protection, cell titer glo readout at 96 hours)
Format: cell-based
Settings: Human immunodeficiency virus 1, MT4, 96 h, MT4 cells, cell titer glo readout at 96 hours, 10 point dose response; read-out: HIV MT4 Assay IC50
How it was run: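 MT-4 cells infected with HIV, with inhibition readout by CellTiter-Glo luminescence at 96 h relative to no-compound control. Cytotoxicity measured in parallel under the same conditions. IC50 from a 10-point, 3-4-fold dilution series spanning >1000-fold, fitted with a four-parameter logistic equation.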

Row | pIC50 | Compound
1 | 7.75 | Cc1nc2c(cc(-c3nccc(N4CCN(C5CCOCC5)CC4)n3)n2C)c(-c2cc(F)c3c(c2C)CCCO3)c1[C@H](OC(C)(C)C)C(=O)O (atropisomer, axis not shown; (M)) [Example 358]
2 | 8.80 | Cc1nc2c(cc(-c3nnc(N4C[C@@H](C)O[C@@H](C)C4)o3)n2C)c(-c2cc(F)c3c(c2C)CCCO3)c1[C@H](OC(C)(C)C)C(=O)O (racemic) [Example 338]
3 | 7.96 | Cc1nc2c(cc(-c3cc(N4C[C@@H](C)O[C@@H](C)C4)ncn3)n2C)c(-c2cc(F)c3c(c2C)CCCO3)c1[C@H](OC(C)(C)C)C(=O)O (racemic) [Example 364]
4 | 7.88 | Cc1nc2c(cc(-c3nc(N4C[C@@H](C)N[C@@H](C)C4)ns3)n2C)c(-c2cc(F)c3c(c2C)CCCO3)c1[C@H](OC(C)(C)C)C(=O)O (racemic) [Example 397]
5 | 7.87 | Cc1nc2c(cc(-c3csc(N4C[C@@H](C)O[C@@H](C)C4)n3)n2C)c(-c2cc(F)c3c(c2C)CCCO3)c1[C@H](OC(C)(C)C)C(=O)O (racemic) [Example 409]
6 | 8.59 | Cc1nc2c(cc(-c3ccnc(-c4ccc5nn(C)nc5c4)c3)n2C)c(-c2cc(F)c3c(c2C)CCCO3)c1[C@H](OC(C)(C)C)C(=O)O [Example 61]
7 | 8.62 | Cc1nc2c(cc(-c3ccnc(-c4ccc5c(cnn5C5COC5)c4)c3)n2C)c(-c2cc(F)c3c(c2C)CCCO3)c1[C@H](OC(C)(C)C)C(=O)O [Example 65]
8 | 7.63 | Cc1nc2c(cc(-c3cccc(-c4ccc5c(cnn5C)c4)n3)n2C)c(-c2cc(F)c3c(c2C)CCCO3)c1[C@H](OC(C)(C)C)C(=O)O [Example 71]
9 | 8.42 | Cc1cc(COc2cc(-c3cc4c(-c5cc(F)c6c(c5C)CCCO6)c([C@H](OC(C)(C)C)C(=O)O)c(C)nc4n3C)ccn2)ccn1 [Example 73]
10 | 7.25 | Cc1nc2c(cc(-c3ccnc(CNc4ncc(F)cn4)c3)n2C)c(-c2cc(F)c3c(c2C)CCCO3)c1[C@H](OC(C)(C)C)C(=O)O [Example 74]
11 | 7.00 | Cc1nc2c(cc(-c3ccnc(OC4CCN(Cc5ccccc5)CC4)c3)n2C)c(-c2cc(F)c3c(c2C)CCCO3)c1[C@H](OC(C)(C)C)C(=O)O [Example 75]
12 | 7.39 | Cc1nc2c(cc(-c3ccnc(CN(C)c4ccccn4)c3)n2C)c(-c2cc(F)c3c(c2C)CCCO3)c1[C@H](OC(C)(C)C)C(=O)O [Example 77]
13 | 8.24 | Cc1nc2c(cc(-c3ccnc(-c4ccc5c(c4)OCCO5)c3)n2C)c(-c2cc(F)c3c(c2C)CCCO3)c1[C@H](OC(C)(C)C)C(=O)O [Example 78]

Continued, compound first:

Row | Compound | pIC50
14 | Cc1nc2c(cc(CN3CCCCC3)n2C)c(-c2cc(F)c3c(c2C)CCCO3)c1[C@H](OC(C)(C)C)C(=O)O (atropisomer, axis not shown; (M)) [Example 288, (2S)(M)-2-(tert-butoxy)-2-(-4-(8-fluoro-5-methylchroman-6-yl)-1,6-dimethyl-2-(piperidin-1-ylmethyl)-1H-pyrrolo[2,3-b]pyridin-5-yl)acetic acid] | 6.60
15 | Cc1nc2c(cc(CCC(=O)NCc3ccc(F)cc3)n2C)c(-c2cc(F)c3c(c2C)CCCO3)c1[C@H](OC(C)(C)C)C(=O)O (atropisomer, axis not shown; (M)) [Example 297, (2S)(M) 2-(tert-butoxy)-2-((R)-4-(8-fluoro-5-methylchroman-6-yl)-2-(3-((4-fluorobenzyl)amino)-3-oxopropyl)-1,6-dimethyl-1H-pyrrolo[2,3-b]pyridin-5-yl)acetic acid] | 6.89
16 | Cc1nc2c(cc(-c3nnc(N4CCN(C5CCOCC5)CC4)o3)n2C)c(-c2cc(F)c3c(c2C)CCCO3)c1[C@H](OC(C)(C)C)C(=O)O (atropisomer, axis not shown; (M)) [Example 300, (2S)(M)-2-(tert-butoxy)-2-(-4-(8-fluoro-5-methylchroman-6-yl)-1,6-dimethyl-2-(5-(4-(tetrahydro-2H-pyran-4-yl)piperazin-1-yl)-1,3,4-oxadiazol-2-yl)-1H-pyrrolo[2,3-b]pyridin-5-yl)acetic acid] | 7.98
17 | Cc1nc2c(cc(-c3nc(-c4ccc5c(cnn5C)c4)no3)n2C)c(-c2cc(F)c3c(c2C)CCCO3)c1[C@H](OC(C)(C)C)C(=O)O (atropisomer, axis not shown; (M)) [Example 354, (2S)(M)-2-(tert-butoxy)-2-(4-(8-fluoro-5-methylchroman-6-yl)-1,6-dimethyl-2-(3-(1-methyl-1H-indazol-5-yl)-1,2,4-oxadiazol-5-yl)-1H-pyrrolo[2,3-b]pyridin-5-yl)acetic acid] | 8.30
18 | Cc1nc2c(cc(-c3nc(-c4ccc5c(cnn5C)c4)ns3)n2C)c(-c2cc(F)c3c(c2C)CCCO3)c1[C@H](OC(C)(C)C)C(=O)O (atropisomer, axis not shown; (M)) [Example 355, (2S)(M)-2-(tert-butoxy)-2-(-4-(8-fluoro-5-methylchroman-6-yl)-1,6-dimethyl-2-(3-(1-methyl-1H-indazol-5-yl)-1,2,4-thiadiazol-5-yl)-1H-pyrrolo[2,3-b]pyridin-5-yl)acetic acid] | 8.33
19 | Cc1nc2c(cc(-c3nnc(-c4ccc5c(cnn5C)c4)s3)n2C)c(-c2cc(F)c3c(c2C)CCCO3)c1[C@H](OC(C)(C)C)C(=O)O (atropisomer, axis not shown; (M)) [Example 356, (2S)(M)-2-(tert-butoxy)-2-(-4-(8-fluoro-5-methylchroman-6-yl)-1,6-dimethyl-2-(5-(1-methyl-1H-indazol-5-yl)-1,3,4-thiadiazol-2-yl)-1H-pyrrolo[2,3-b]pyridin-5-yl)acetic acid] | 8.01
20 | Cc1nc2c(cc(-c3nsc(-c4ccc5c(cnn5C)c4)n3)n2C)c(-c2cc(F)c3c(c2C)CCCO3)c1[C@H](OC(C)(C)C)C(=O)O (atropisomer, axis not shown; (M)) [Example 357, (2S)(M)-2-(tert-butoxy)-2-(-4-(8-fluoro-5-methylchroman-6-yl)-1,6-dimethyl-2-(5-(1-methyl-1H-indazol-5-yl)-1,2,4-thiadiazol-3-yl)-1H-pyrrolo[2,3-b]pyridin-5-yl)acetic acid] | 8.40
21 | Cc1nc2c(cc(-c3nc(N4C[C@@H](C)O[C@@H](C)C4)no3)n2C)c(-c2cc(F)c3c(c2C)CCCO3)c1[C@H](OC(C)(C)C)C(=O)O (atropisomer, axis not shown; (M)) [Example 410, (2S)(M)-2-(tert-butoxy)-2-(-2-(3-((2S,6R)-2,6-dimethylmorpholino)-1,2,4-oxadiazol-5-yl)-4-(8-fluoro-5-methylchroman-6-yl)-1,6-dimethyl-1H-pyrrolo[2,3-b]pyridin-5-yl)acetic acid] | 8.51
22 | Cc1nc2c(cc(-c3noc(N4CCC(C)CC4)n3)n2C)c(-c2cc(F)c3c(c2C)CCCO3)c1[C@H](OC(C)(C)C)C(=O)O (atropisomer, axis not shown; (M)) [Example 411, (2S)(M)-2-(tert-butoxy)-2-(-4-(8-fluoro-5-methylchroman-6-yl)-1,6-dimethyl-2-(5-(4-methylpiperidin-1-yl)-1,2,4-oxadiazol-3-yl)-1H-pyrrolo[2,3-b]pyridin-5-yl)acetic acid] | 8.12
23 | Cc1nc2c(cc(CNC(=O)c3ccc4c(cnn4C)c3)n2C)c(-c2cc(F)c3c(c2C)CCCO3)c1[C@H](OC(C)(C)C)C(=O)O (atropisomer, axis not shown; (M)) [Example 412, (2S)(M)-2-(tert-butoxy)-2-(-4-(8-fluoro-5-methylchroman-6-yl)-1,6-dimethyl-2-((1-methyl-1H-indazole-5-carboxamido)methyl)-1H-pyrrolo[2,3-b]pyridin-5-yl)acetic acid] | 7.37
24 | COCCNC(=O)/C=C/c1cc2c(-c3cc(F)c4c(c3C)CCCO4)c([C@H](OC(C)(C)C)C(=O)O)c(C)nc2n1C (atropisomer, axis not shown; (M)) [Example 413, (2S)(M)-2-(tert-butoxy)-2-(-4-(8-fluoro-5-methylchroman-6-yl)-2-((E)-3-((2-methoxyethyl)amino)-3-oxoprop-1-en-1-yl)-1,6-dimethyl-1H-pyrrolo[2,3-b]pyridin-5-yl)acetic acid] | 6.83
25 | Cc1nc2c(cc(C(=O)C(=O)NCc3ccccc3)n2C)c(-c2cc(F)c3c(c2C)CCCO3)c1[C@H](OC(C)(C)C)C(=O)O (atropisomer, axis not shown; (M)) [Example 420, (2S)(M)-2-(-2-(2-(benzylamino)-2-oxoacetyl)-4-(8-fluoro-5-methylchroman-6-yl)-1,6-dimethyl-1H-pyrrolo[2,3-b]pyridin-5-yl)-2-(tert-butoxy)acetic acid] | 7.02
26 | Cc1nc2c(cc(-c3ccnc(N4CC(N5CCOCC5)C4)c3)n2C)c(-c2cc(F)c3c(c2C)CCCO3)c1[C@H](OC(C)(C)C)C(=O)O [Example 2, (2S)-2-(tert-butoxy)-2-[4-(8-fluoro-5-methyl-3,4-dihydro-2H-1-benzopyran-6-yl)-1,6-dimethyl-2-{2-[3-(morpholin-4-yl)azetidin-1-yl]pyridin-4-yl}-1H-pyrrolo[2,3-b]pyridin-5-yl]acetic acid] | 7.81
27 | Cc1nc2c(cc(-c3ccnc(-c4ccc5c(cnn5C)c4)c3)n2C)c(-c2ccc(Cl)cc2)c1[C@H](OC(C)(C)C)C(=O)O [Example 15, (2S)-2-(tert-butoxy)-2-[4-(4-chlorophenyl)-1,6-dimethyl-2-[2-(1-methyl-1H-indazol-5-yl)pyridin-4-yl]-1H-pyrrolo[2,3-b]pyridin-5-yl]acetic acid] | 7.86
28 | CCCn1cc(-c2cc(-c3cc4c(-c5cc(F)c6c(c5C)CCCO6)c([C@H](OC(C)(C)C)C(=O)O)c(C)nc4n3C)ccn2)cn1 [Example 44] | 7.85
29 | Cc1nc2c(cc(-c3ccnc(-c4ccc5c(c4)ncn5C)c3)n2C)c(-c2cc(F)c3c(c2C)CCCO3)c1[C@H](OC(C)(C)C)C(=O)O [Example 51] | 8.40
30 | Cc1nc2c(cc(-c3ccnc(-c4ccc5nn(C6COC6)cc5c4)c3)n2C)c(-c2cc(F)c3c(c2C)CCCO3)c1[C@H](OC(C)(C)C)C(=O)O [Example 64] | 8.55
31 | Cc1nc2c(cc(-c3ccnc(CNc4ccccn4)c3)n2C)c(-c2cc(F)c3c(c2C)CCCO3)c1[C@H](OC(C)(C)C)C(=O)O [Example 76] | 6.95
